Laboratory results published in US20210095322A1, “HIGH-PURITY STEVIOL GLYCOSIDES” (PureCircle USA Inc., priority 2018, published 2021).
Where two headings read alike, the source gives them in different places. One block for each molecule: values may come before it.

What was measured:
[1] = Sweetness perception threshold (FEMA method, 2-AFC vs 1.5% sugar) in neutral water; format: in vivo, human; settings: for % Frequency / PC (paired comparison count, panelists choosing the sample as sweeter): 2-AFC, n = 30
Experimental: A series of experiments were performed to evaluate the effect of Reb AM on taste and flavor profile. The sweetness and taste/flavor modification can influence each other in food and beverage applications. To determine the influence of the taste and flavor modification in different applications, the FEMA (Flavor and Extract Manufacturing Association) prescribes a sensory method that determines the sweetness perception threshold determination presented in Experiment 1, which is discussed below.
Experiment 1 provides the estimate of Reb AM concentration in water that barely contributes to sweetness perception. […] The summary of sweetness perception threshold for selected steviol glycosides is below in Table 11.
Therefore we selected 50 ppm of Reb AM as the recognition threshold concentration.

[2] = Solubility characteristics and solution stability in water; format: physicochemical; settings: for Solubility: summary of solution stability in water
Experimental: Solubility characteristics were measured as follows. Prepare the following solutions in water and stir at 700 rpm for each. Add heat if necessary at 2 minutes and 30 seconds of stirring. Using a stopwatch, determine how long it takes all powder to dissolve completely and record the temperature at which it dissolves. The following table summarizes the solubility characteristics of Rebaudiosides D, M, and AM.

[3] = Isosweet determination (2-AFC) vs sucrose in acidified water, sweetness potency; format: in vivo, human; settings: pH = 3.2
Experimental: As an example, Reb AM was evaluated.

[4] = FEMA GRAS publication; cited from earlier work
[5] = Flavor modification of Raspberry Watermelon Coconut Water, sensory panel; format: in vivo, human; set-up: Sweet Intensity mean score / Bitter Intensity mean score / Astringency mean score / Coconut Flavor mean score / Watermelon Flavor mean score / Raspberry Flavor mean score / Artificial/Chemical Note mean score / Sweet Aftertaste mean score / Bitter Aftertaste mean score / Overall Liking mean score: scale not given here
Excerpt: Thirty panel members evaluated two samples of raspberry watermelon flavored coconut water for overall acceptance and attribute intensities (sweetness, Raspberry flavor, watermelon flavor, coconut water flavor, saltiness, bitterness, and sweet aftertaste, bitter aftertaste) in two sessions. In session one, the two samples included: 1) store-bought Raspberry Watermelon Coconut Water control sample and 2) store-bought Raspberry Watermelon Coconut Water test sample containing Reb AM. The objective of the test was to determine if the addition of Reb AM affects the flavor profile of a non-alcoholic beverage.
The test objective is to determine if the flavor profile and overall acceptance of a Control sample of flavored coconut water differs from a Test sample of the same beverage containing Reb AM.

[6] = Flavor modification of chocolate flavored dairy protein shake, sensory panel; format: in vivo, human; set-up: Sweet Intensity mean score / Bitterness mean score / Metallic Note mean score / Cocoa Flavor mean score / Dairy Note mean score / Whey Protein Note mean score / Vanilla Note mean score / Sweet Aftertaste mean score / Bitter Aftertaste mean score / Overall Liking mean score: scale not given here
Excerpt: Thirty trained panelists evaluated two samples of chocolate flavored dairy protein shake for overall acceptance and attribute intensities (cocoa flavor, dairy note, whey protein, vanilla, metallic, sweetness, bitterness and aftertaste). The two samples included: 1) no sugar added “Control” sample containing 300 ppm PureCircle Reb A and 2) no sugar added “Test” sample containing 300 ppm PureCircle Reb A and 50 ppm Reb AM. The objective of the test was to determine if the addition of Reb AM affects the flavor profile of a milk product.
The test objective is to determine if the flavor profile and overall acceptance of a control sample of dairy beverage application differs from a Test sample of the same beverage containing Reb AM.

[7] = Taste panel of no-calorie Lemon-lime carbonated soft drink; format: in vivo, human; settings: 500 ppm in Lemon-lime CSD
Excerpt: A group of trained and experienced taste panel members evaluated no-calorie Lemon-lime carbonated soft drink (CSD) sweetened with 500 ppm of Reb AM, Reb D, or Reb M samples.

[8] = 1.5% Sucrose vs 30 ppm Reb AM in neutral water
[9] = 1.5% Sucrose vs 50 ppm Reb AM in neutral water
[10] = 1.5% Sucrose vs 70 ppm of Reb AM in neutral water
[11] = 1.5% Sucrose vs 100 ppm Reb AM in neutral water
[12] = 50 ppm Reb AM in coconut water, 95% confidence
[13] = Coconut water (raspberry/watermelon flavor) with 50 ppm of Reb AM, 30 panelists
[14] = 50 ppm Reb AM added to shake with 300 ppm Reb A, 95% confidence
[15] = NSA Chocolate Vanilla Protein Dairy Shake w Reb A & 50 ppm Reb AM, 30 panelists

Structure (SMILES): OC[C@H]1O[C@@](CO)(O[C@H]2O[C@H](CO)[C@@H](O)[C@H](O)[C@H]2O)[C@@H](O)[C@@H]1O [Sucrose]
% Frequency [1, 8]: 96.7%
PC (paired comparison count, panelists choosing the sample as sweeter) [1, 8]: 29
% Frequency [1, 9]: 76.7%
PC (paired comparison count, panelists choosing the sample as sweeter) [1, 9]: 23
% Frequency [1, 10]: 30%
PC (paired comparison count, panelists choosing the sample as sweeter) [1, 10]: 9
% Frequency [1, 11]: 10%
PC (paired comparison count, panelists choosing the sample as sweeter) [1, 11]: 3

Comment on solubility ([2]; Test Conc. 0.1%): Easily Soluble
Dissolution in water (Heated), time ([2]; Test Conc. 0.1%): No heat needed
Dissolution water (Ambient), time of agitation ([2]; Test Conc. 0.1%): 12 minutes of
Solution after 24 hrs ([2]; Test Conc. 0.1%): Clear
Solution after 48 hrs ([2]; Test Conc. 0.1%): Clear
Comment on solubility ([2]; Test Conc. 0.3%): Moderately
Dissolution in water (Heated), temperature ([2]; Test Conc. 0.3%): Heated to 99 deg C. deg. C.
Solution after 24 hrs ([2]; Test Conc. 0.3%): Clear
Solution after 48 hrs ([2]; Test Conc. 0.3%): Slight
Comment on solubility ([2]; Test Conc. 0.5%): Requires
Dissolution in water (Heated), temperature ([2]; Test Conc. 0.5%): 87 deg. C. with
Dissolution in water (Heated), time ([2]; Test Conc. 0.5%): agitation. 16 min
Solution after 24 hrs ([2]; Test Conc. 0.5%): Moderate
Solubility [2]: 0.3%
Structure (SMILES): C=C1C[C@@]23CC[C@H]4[C@@](C)(CCC[C@@]4(C)C(=O)O[C@@H]4O[C@H](CO)[C@@H](O)[C@H](O[C@@H]5O[C@H](CO)[C@@H](O)[C@H](O)[C@H]5O)[C@H]4O[C@@H]4O[C@H](CO)[C@@H](O)[C@H](O)[C@H]4O)[C@@H]2CC[C@]1(O[C@@H]1O[C@H](CO)[C@@H](O)[C@H](O[C@@H]2O[C@H](CO)[C@@H](O)[C@H](O)[C@H]2O)[C@H]1O[C@@H]1O[C@H](CO)[C@@H](O)[C@H](O)[C@H]1O)C3 [Reb M, rebaudioside M]
Sweetness Equivalent (ppm) in Water ([3]; 2.5% SE): 84 ppm
Sweetness Potency in Water ([3]; 2.5% SE): 298 x sugar equivalent
Sweetness Equivalent (ppm) in Water ([3]; 5.0% SE): 209 ppm
Sweetness Potency in Water ([3]; 5.0% SE): 239 x sugar equivalent
Sweetness Equivalent (ppm) in Water ([3]; 7.5% SE): 418 ppm
Sweetness Potency in Water ([3]; 7.5% SE): 179 x sugar equivalent
Sweetness Equivalent (ppm) in Water ([3]; 10.0% SE): 832 ppm
Sweetness Potency in Water ([3]; 10.0% SE): 90 x sugar equivalent
Sweetness Perception Threshold Concentration [4]: 24 ppm

Comment on solubility ([2]; Test Conc. 1%): Easily Soluble
Dissolution in water (Heated) ([2]; Test Conc. 1%): No heat needed
Dissolution water (Ambient), stirring time ([2]; Test Conc. 1%): Stirred for 3 min
Solution after 24 hrs ([2]; Test Conc. 1%): Clear
Solution after 48 hrs ([2]; Test Conc. 1%): Clear
Comment on solubility ([2]; Test Conc. 5%): Easily Soluble
Dissolution in water (Heated), temperature ([2]; Test Conc. 5%): 45 C.
Solution after 24 hrs ([2]; Test Conc. 5%): Clear
Solution after 48 hrs ([2]; Test Conc. 5%): Clear
Comment on solubility ([2]; Test Conc. 10%): Moderately
Dissolution in water (Heated), temperature ([2]; Test Conc. 10%): 54 C.
Solution after 24 hrs ([2]; Test Conc. 10%): Clear
Solution after 48 hrs ([2]; Test Conc. 10%): Slight
Solubility [2]: 10%
Structure (SMILES): C=C1C[C@@]23CC[C@H]4[C@@](C)(CCC[C@@]4(C)C(=O)O[C@@H]4O[C@H](CO)[C@@H](O)[C@H](O[C@@H]5O[C@H](CO)[C@@H](O)[C@H](O)[C@H]5O)[C@H]4O[C@@H]4O[C@H](CO)[C@@H](O)[C@H](O)[C@H]4O)[C@@H]2CC[C@]1(O[C@@H]1O[C@H](CO)[C@@H](O)[C@H](O)[C@H]1O[C@@H]1O[C@H](CO)[C@@H](O)[C@H](O)[C@H]1O)C3 [Reb AM, Rebaudioside AM]
Solubility compared with other steviol glycosides ([2]; water): significantly higher solubility than other minor and major steviol glycosides
Sweetness Equivalent (ppm) in Water ([3]; 2.5% SE): 150 ppm
Sweetness Potency in Water ([3]; 2.5% SE): 167 x sugar equivalent
Sweetness Equivalent (ppm) in Water ([3]; 5.0% SE): 365 ppm
Sweetness Potency in Water ([3]; 5.0% SE): 137 x sugar equivalent
Sweetness Equivalent (ppm) in Water ([3]; 7.5% SE): 869 ppm
Sweetness Potency in Water ([3]; 7.5% SE): 86 x sugar equivalent
Sweetness Equivalent (ppm) in Water ([3]; 10.0% SE): 1750 ppm
Sweetness Potency in Water ([3]; 10.0% SE): 57 x sugar equivalent
% Frequency [1, 8]: 3.3%
PC (paired comparison count, panelists choosing the sample as sweeter) [1, 8]: 1
% Frequency [1, 9]: 23.3%
PC (paired comparison count, panelists choosing the sample as sweeter) [1, 9]: 7
% Frequency [1, 10]: 70%
PC (paired comparison count, panelists choosing the sample as sweeter) [1, 10]: 21
% Frequency [1, 11]: 90%
PC (paired comparison count, panelists choosing the sample as sweeter) [1, 11]: 27
Sweetness perception compared with 1.5% sugar solution ([1]; 50 ppm in water): significantly lower
Sweetness Perception Threshold Concentration ([1]; neutral water, vs 1.5% sugar solution): 50 ppm
sweet aftertaste intensity vs control ([5]; 50 ppm Reb AM in coconut water, 90% confidence): significantly lower
coconut water flavor vs control [5, 12]: significantly higher
mango peach flavor vs control [5, 12]: significantly higher
overall liking vs control [5, 12]: significantly higher
watermelon flavor vs control [5, 12]: significantly higher
Artificial/Chemical Note mean score [5, 13]: 2.55
Astringency mean score [5, 13]: 1.10
Bitter Aftertaste mean score [5, 13]: 0.29
Bitter Intensity mean score [5, 13]: 0.24
Coconut Flavor mean score [5, 13]: 5.11
Overall Liking mean score [5, 13]: 5.04
Raspberry Flavor mean score [5, 13]: 0.95
Sweet Aftertaste mean score [5, 13]: 1.33
Sweet Intensity mean score [5, 13]: 4.44
Watermelon Flavor mean score [5, 13]: 4.41
impact on sweetness intensity ([6]; 50 ppm Reb AM added to shake with 300 ppm Reb A): no significant impact
bitter aftertaste vs control [6, 14]: lower
bitterness vs control [6, 14]: significantly lower
cocoa flavor vs control [6, 14]: significantly higher
dairy notes vs control [6, 14]: significantly higher
metallic note vs control [6, 14]: significantly lower
overall liking vs control [6, 14]: significantly higher
vanilla flavor vs control [6, 14]: significantly higher
whey protein vs control [6, 14]: significantly lower
Bitter Aftertaste mean score [6, 15]: 0.77
Bitterness mean score [6, 15]: 1.46
Cocoa Flavor mean score [6, 15]: 4.55
Dairy Note mean score [6, 15]: 4.59
Metallic Note mean score [6, 15]: 1.48
Overall Liking mean score [6, 15]: 5.59
Sweet Aftertaste mean score [6, 15]: 1.65
Sweet Intensity mean score [6, 15]: 5.98
Vanilla Note mean score [6, 15]: 2.52
Whey Protein Note mean score [6, 15]: 4.32
bitterness compared to CSD with Reb D or Reb M [7]: significantly less
sweetness compared to CSD with Reb D or Reb M [7]: less sweet
sweetness lingering compared to CSD with Reb D or Reb M [7]: significantly less

Comment on solubility ([2]; Test Conc. 0.05%): Easily Soluble
Dissolution in water (Heated), temperature ([2]; Test Conc. 0.05%): temp: 39 deg. C.
Solution after 24 hrs ([2]; Test Conc. 0.05%): Clear
Solution after 48 hrs ([2]; Test Conc. 0.05%): Clear
Comment on solubility ([2]; Test Conc. 0.1%): Easily Soluble
Dissolution in water (Heated), temperature ([2]; Test Conc. 0.1%): temp: 72 deg. C.
Solution after 24 hrs ([2]; Test Conc. 0.1%): Clear
Solution after 48 hrs ([2]; Test Conc. 0.1%): Clear
Comment on solubility ([2]; Test Conc. 0.3%): Requires
Dissolution in water (Heated), temperature ([2]; Test Conc. 0.3%): 78.5 deg. C.
Solubility [2]: 0.1%
Structure (SMILES): C=C1C[C@@]23CC[C@H]4[C@@](C)(CCC[C@@]4(C)C(=O)O[C@@H]4O[C@H](CO)[C@@H](O)[C@H](O)[C@H]4O[C@@H]4O[C@H](CO)[C@@H](O)[C@H](O)[C@H]4O)[C@@H]2CC[C@]1(O[C@@H]1O[C@H](CO)[C@@H](O)[C@H](O[C@@H]2O[C@H](CO)[C@@H](O)[C@H](O)[C@H]2O)[C@H]1O[C@@H]1O[C@H](CO)[C@@H](O)[C@H](O)[C@H]1O)C3 [Reb D, rebaudioside D]
Sweetness Equivalent (ppm) in Water ([3]; 2.5% SE): 62 ppm
Sweetness Potency in Water ([3]; 2.5% SE): 403 x sugar equivalent
Sweetness Equivalent (ppm) in Water ([3]; 5.0% SE): 212 ppm
Sweetness Potency in Water ([3]; 5.0% SE): 236 x sugar equivalent
Sweetness Equivalent (ppm) in Water ([3]; 7.5% SE): 500 ppm
Sweetness Potency in Water ([3]; 7.5% SE): 150 x sugar equivalent
Sweetness Equivalent (ppm) in Water ([3]; 10.0% SE): 926 ppm
Sweetness Potency in Water ([3]; 10.0% SE): 108 x sugar equivalent
Sweetness Perception Threshold Concentration [4]: 32.5 ppm
